Source: patent US9999609B2, “Methods for treating or preventing fatigue” (SK Biopharmaceuticals Co., Ltd., priority 2009, dated 2018)

Assays:
Type in all cases: in vivo
[1] = tested on: male adult Sprague Dawley rats; test: Sleep-wake organization (EEG/EOG/EMG) in rats after acute i.p. administration; conditions: rats, mean ± s.e.m of 8 rats; for Duration Active wake / Duration Deep sleep / Duration Intemediate stage / Duration Light sleep / Duration Passive wake / Duration REM sleep: 16 h recording
[2] = tested on: C57BL/6J, AKR/J and DBA/2J mice; test: Sleep onset and vigilance states in three inbred mouse strains after IP injection
Experimental: At least 7 adult male mice of inbred strains C57BL/6J, AKR/J, and DBA/2J were recorded in 2 sessions of 72 continuous hours. The first 24 h in each session are considered as baseline followed the next day by the saline injection and the next day by 150 mg/kg of the test compound in the first session and 5 mg/kg d-amphetamine in the second session. The two sessions were separated by 7 days (wash-out period) and all injections were intraperitoneal (IP) and performed at light onset (9 am) in a volume of 5 ml/kg.

[3] = tested on: hypocretin cell ablated narcoleptic mice (prepororexin/ataxin-3 transgenic) and their littermate wild-type mice; test: Sleep parameters (EEG/EMG polygraph) in narcoleptic and wild-type mice after oral dosing
Source text: The polygraph signal (EEG and EMG) was captured with SleepSign (Kissei Comtech), and the sleep stage was visually scored with 10 sec epoch for wakefulness, non-REM sleep and REM sleep. Scoring criteria are: Wakefulness is characterized by desynchronized low-amplitude, mixed frequency (>4 Hz) EEG and high EMG activity. Rhythmic alpha (8-9 Hz) wave (with high EMG activities) may also appear. Non-REM is characterized by synchronized, high-amplitude, low-frequency (0.25-4 Hz) with reduced EMG activity (compared to wakefulness). EEG activity in REM sleep is similar to that in wakefulness, with desynchronized, mixed frequency low amplitude waves. Rhythmic alpha (8-9 Hz) wave with reduced EMG activities may also appear. […] is reduced even further and in many cases, completely absent. Same muscle twitching may be apparent in the EMG trace during REM sleep.
Three drug doses of the test compound (50, 100 and 150 mg/kg PO) plus vehicle, were orally administered at ZT 2 (2 hours after light on) or ZT14 (2 hours after light off), and the effects on sleep were monitored for 6 hours after the drug administration (the sleep data was collected for 30 hours after the drug injection, and are available for further analysis). The doses for modafinil were 50 and 200 mg/kg PO (plus vehicle), and modafinil was also administered at ZT 2 and […]
If the polygraph signals of some mice were not sufficient to score the sleep stage with accuracy (especially bad EMG), data from these animals were excluded, and the minimum of 5 animals (except for the highest dose of the test compound in wild-type mice in dark period, n=4) were included for the data analysis and number of animals were indicated in the figures.
Effects of test compound and modafinil on the amount of wake, non-REM sleep, REM sleep (cumulative seconds), number of episodes for each sleep stage during 6 hours, and mean wake/sleep-bout lengths (seconds) were analyzed in each animal and the mean of each parameter was calculated in each genotype. The effects of compounds on wake and sleep amounts are useful to evaluate the wake promoting potency, and the number of episodes for each sloop stage and the mean wake/sleep bout length are parameters for evaluating the sleep fragmentation. Amphetamine and modafinil, two main wake-promoting compounds currently used for the treatment of EDS associated with various etiologies (narcolepsy, idiopathic hypersomnia and secondary EDS), are known to increase wake time and prolong wake bout length in normal and EDS conditions.
A comparison of the effects between hypocretin deficient and wild-type mice is very useful in determining the wake-promotion of the test compound is dependent on the availability of hypocretins, and if there is a possible change in the sensitivity of the receptive mechanisms of test compound in narcoleptic mice due to the hypocretin ligand deficiency.

[4] = tested on: adult human subjects with moderate or severe major depression without psychotic features; test: Randomized double-blind placebo- and active-controlled 6-week study in major depression; conditions: 20 mg/day
Source text: This was a randomized, double-blind, parallel-group, active, and placebo-controlled, multicenter study conducted in the U.S. (23 centers) and Canada (4 centers). There were 2 phases: a pretreatment phase (screening/washout and a baseline visit) and a 6-week, double-blind treatment phase. Paroxetine, a positive control, was included to evaluate assay sensitivity. After washout (if needed) of prohibited substances, subjects were randomly assigned (1:1:1:1) to receive the test compound titrated to a target dose of 200 mg/day or 400 mg/day, matching placebo, or a fixed dose (20 mg/day) of paroxetine. Study drug was given twice daily for 6 weeks. Efficacy and safety were assessed weekly during the double-blind phase. Subjects completing the study underwent an Exit Interview (“Your Health and Well-Being”) and completed an Assessment of Benefits of Clinical-trial Drug-treatment (ABCD) questionnaire (U.S. sites only).

CC(N)Cc1ccccc1 (stereo not shown) [Amphetamine, amphetamine]
Duration Active wake ([1]; 1 mg/kg i.p.): 382.4 ± 19.6 min
Duration Deep sleep ([1]; 1 mg/kg i.p.): 188.0 ± 19.6 min
Duration Intemediate stage ([1]; 1 mg/kg i.p.): 4.0 ± 19.6 min
Duration Light sleep ([1]; 1 mg/kg i.p.): 242.7 ± 19.6 min
Duration Passive wake ([1]; 1 mg/kg i.p.): 50.0 ± 19.6 min
Duration REM sleep ([1]; 1 mg/kg i.p.): 88.6 ± 19.6 min
Latency ISWS ([1]; 1 mg/kg i.p.): 140.6 ± 13.4 min
Latency REM sleep ([1]; 1 mg/kg i.p.): 208.6 ± 14.4 min
Latency dSWS ([1]; 1 mg/kg i.p.): 161.7 ± 5.3 min
Shifts: Shift from ISWS to AW ([1]; 1 mg/kg i.p.): 198.8 ± 50.1 number
Shifts: Shift from ISWS to PW ([1]; 1 mg/kg i.p.): 64.4 ± 30.5 number
Shifts: Shift from REMS to AW ([1]; 1 mg/kg i.p.): 66.5 ± 19.1 number
Shifts: Shift from REMS to PW ([1]; 1 mg/kg i.p.): 5.8 ± 4.8 number
Shifts: Shift from dSWS to AW ([1]; 1 mg/kg i.p.): 11.7 ± 7.2 number
Shifts: Shift from dSWS to PW ([1]; 1 mg/kg i.p.): 37.7 ± 30.0 number
Duration Active wake ([1]; 3 mg/kg i.p.): 441.8 ± 15.7 min
Duration Deep sleep ([1]; 3 mg/kg i.p.): 207.6 ± 17.7 min
Duration Intemediate stage ([1]; 3 mg/kg i.p.): 4.0 ± 1.0 min
Duration Light sleep ([1]; 3 mg/kg i.p.): 187.9 ± 23.9 min
Duration Passive wake ([1]; 3 mg/kg i.p.): 43.5 ± 4.4 min
Duration REM sleep ([1]; 3 mg/kg i.p.): 71.4 ± 4.1 min
Latency ISWS ([1]; 3 mg/kg i.p.): 228.2 ± 25.0 min
Latency REM sleep ([1]; 3 mg/kg i.p.): 338.6 ± 24.3 min
Latency dSWS ([1]; 3 mg/kg i.p.): 242.0 ± 19.4 min
Shifts: Shift from ISWS to AW ([1]; 3 mg/kg i.p.): 178.7 ± 46.6 number
Shifts: Shift from ISWS to PW ([1]; 3 mg/kg i.p.): 62.4 ± 26.1 number
Shifts: Shift from REMS to AW ([1]; 3 mg/kg i.p.): 59.3 ± 17.8 number
Shifts: Shift from REMS to PW ([1]; 3 mg/kg i.p.): 3.3 ± 2.6 number
Shifts: Shift from dSWS to AW ([1]; 3 mg/kg i.p.): 14.8 ± 7.8 number
Shifts: Shift from dSWS to PW ([1]; 3 mg/kg i.p.): 26.6 ± 16.8 number
Duration Active wake ([1]; 10 mg/kg i.p.): 498.7 ± 19.0 min
Duration Deep sleep ([1]; 10 mg/kg i.p.): 181.2 ± 22.0 min
Duration Intemediate stage ([1]; 10 mg/kg i.p.): 4.0 ± 1.0 min
Duration Light sleep ([1]; 10 mg/kg i.p.): 182.0 ± 26.3 min
Duration Passive wake ([1]; 10 mg/kg i.p.): 35.6 ± 4.7 min
Duration REM sleep ([1]; 10 mg/kg i.p.): 53.6 ± 5.0 min
Latency ISWS ([1]; 10 mg/kg i.p.): 284.7 ± 56.1 min
Latency REM sleep ([1]; 10 mg/kg i.p.): 440.8 ± 57.8 min
Latency dSWS ([1]; 10 mg/kg i.p.): 367.3 ± 5.5 min
Shifts: Shift from ISWS to AW ([1]; 10 mg/kg i.p.): 201.7 ± 66.1 number
Shifts: Shift from ISWS to PW ([1]; 10 mg/kg i.p.): 49.0 ± 25.5 number
Shifts: Shift from REMS to AW ([1]; 10 mg/kg i.p.): 50.0 ± 16.2 number
Shifts: Shift from REMS to PW ([1]; 10 mg/kg i.p.): 2.2 ± 1.9 number
Shifts: Shift from dSWS to AW ([1]; 10 mg/kg i.p.): 9.7 ± 5.9 number
Shifts: Shift from dSWS to PW ([1]; 10 mg/kg i.p.): 11.6 ± 8.9 number

COC(=O)[C@H]1[C@@H](OC(=O)c2ccccc2)C[C@@H]2CC[C@H]1N2C [Cocaine, cocaine]
Duration Active wake ([1]; 1 mg/kg i.p.): 331.5 ± 41.5 min
Duration Deep sleep ([1]; 1 mg/kg i.p.): 162.9 ± 26.3 min
Duration Intemediate stage ([1]; 1 mg/kg i.p.): 6.7 ± 1.0 min
Duration Light sleep ([1]; 1 mg/kg i.p.): 293.2 ± 26.3 min
Duration Passive wake ([1]; 1 mg/kg i.p.): 69.8 ± 11.0 min
Duration REM sleep ([1]; 1 mg/kg i.p.): 84.2 ± 8.1 min
Latency ISWS ([1]; 1 mg/kg i.p.): 69.9 ± 51.2 min
Latency REM sleep ([1]; 1 mg/kg i.p.): 74.3 ± 12.1 min
Latency dSWS ([1]; 1 mg/kg i.p.): 79.3 ± 26.7 min
Shifts: Shift from ISWS to AW ([1]; 1 mg/kg i.p.): 184.1 ± 48.1 number
Shifts: Shift from ISWS to PW ([1]; 1 mg/kg i.p.): 128.6 ± 45.2 number
Shifts: Shift from REMS to AW ([1]; 1 mg/kg i.p.): 74.5 ± 21.5 number
Shifts: Shift from REMS to PW ([1]; 1 mg/kg i.p.): 17.0 ± 8.8 number
Shifts: Shift from dSWS to AW ([1]; 1 mg/kg i.p.): 10.1 ± 5.6 number
Shifts: Shift from dSWS to PW ([1]; 1 mg/kg i.p.): 66.6 ± 48.2 number
Duration Active wake ([1]; 3 mg/kg i.p.): 324.8 ± 18.3 min
Duration Deep sleep ([1]; 3 mg/kg i.p.): 172.6 ± 34.3 min
Duration Intemediate stage ([1]; 3 mg/kg i.p.): 5.7 ± 0.6 min
Duration Light sleep ([1]; 3 mg/kg i.p.): 303.2 ± 42.5 min
Duration Passive wake ([1]; 3 mg/kg i.p.): 66.7 ± 8.9 min
Duration REM sleep ([1]; 3 mg/kg i.p.): 76.7 ± 6.3 min
Latency ISWS ([1]; 3 mg/kg i.p.): 41.5 ± 9.2 min
Latency REM sleep ([1]; 3 mg/kg i.p.): 112.0 ± 12.2 min
Latency dSWS ([1]; 3 mg/kg i.p.): 68.6 ± 7.6 min
Shifts: Shift from ISWS to AW ([1]; 3 mg/kg i.p.): 218.5 ± 50.6 number
Shifts: Shift from ISWS to PW ([1]; 3 mg/kg i.p.): 142.2 ± 48.5 number
Shifts: Shift from REMS to AW ([1]; 3 mg/kg i.p.): 56.0 ± 16.4 number
Shifts: Shift from REMS to PW ([1]; 3 mg/kg i.p.): 10.7 ± 6.9 number
Shifts: Shift from dSWS to AW ([1]; 3 mg/kg i.p.): 10.2 ± 6.7 number
Shifts: Shift from dSWS to PW ([1]; 3 mg/kg i.p.): 64.5 ± 42.6 number
Duration Active wake ([1]; 10 mg/kg i.p.): 347.3 ± 16.5 min
Duration Deep sleep ([1]; 10 mg/kg i.p.): 171.9 ± 23.8 min
Duration Intemediate stage ([1]; 10 mg/kg i.p.): 6.3 ± 1.1 min
Duration Light sleep ([1]; 10 mg/kg i.p.): 294.6 ± 24.4 min
Duration Passive wake ([1]; 10 mg/kg i.p.): 55.0 ± 10.4 min
Duration REM sleep ([1]; 10 mg/kg i.p.): 74.7 ± 7.5 min
Latency ISWS ([1]; 10 mg/kg i.p.): 101.8 ± 6.9 min
Latency REM sleep ([1]; 10 mg/kg i.p.): 192.1 ± 18.5 min
Latency dSWS ([1]; 10 mg/kg i.p.): 138.8 ± 8.7 min
Shifts: Shift from ISWS to AW ([1]; 10 mg/kg i.p.): 201.2 ± 53.6 number
Shifts: Shift from ISWS to PW ([1]; 10 mg/kg i.p.): 132.6 ± 48.2 number
Shifts: Shift from REMS to AW ([1]; 10 mg/kg i.p.): 52.3 ± 16.5 number
Shifts: Shift from REMS to PW ([1]; 10 mg/kg i.p.): 9.2 ± 5.8 number
Shifts: Shift from dSWS to AW ([1]; 10 mg/kg i.p.): 10.4 ± 6.2 number
Shifts: Shift from dSWS to PW ([1]; 10 mg/kg i.p.): 37.6 ± 23.8 number

C[C@H](N)Cc1ccccc1 [d-amphetamine]
amount of wakefulness compared with 150 mg/kg test compound ([2]; 5 mg/kg IP): failed to induce the same amount of wakefulness as 150 mg/kg of test compound
genotype effect on induced wakefulness (AK vs D2 mice) ([2]; 5 mg/kg IP): genotype-dependent effect
dose-response of induced wakefulness (sleep latency) ([2]; C57BL/6J mice, 1, 2, 4, 5, 8 mg/kg IP): dose-dependent manner between 1 and 5 mg/kg

NC(=O)C[S+]([O-])C(c1ccccc1)c1ccccc1 (stereo not shown) [modafinil]
effect on wakefulness ([3]; active (dark) period, ZT14, PO): dose-dependently increased wakefulness
wake amount in narcoleptic mice relative to wild-type baseline ([3]; active period, 200 mg/kg PO): did not bring the wake amount to that of the wild-type baseline levels
dose of test compound whose wake promoting effect corresponds to 200 mg/kg of modafinil ([3]; resting period, PO): ~50 mg/kg
effect on REM sleep ([3]; resting period, PO): did not strongly reduce REM sleep
wake-promoting effects ([3]; resting period, wild-type and hypocretin-deficient narcoleptic mice, PO): modest

Fc1ccc([C@@H]2CCNC[C@H]2COc2ccc3c(c2)OCO3)cc1 [paroxetine]
Insomnia, treatment-emergent adverse event incidence ([4]; 6 weeks): 17%
ABCD questionnaire items (of 51) with statistically significant superiority to placebo ([4]; post hoc analyses): 14 items
